# Assay results published in article PMC6442119, “The antitumor activity of CYB-L10, a human topoisomerase IB catalytic inhibitor” (Journal of Enzyme Inhibition and Medicinal Chemistry, 2019).
# Tests used:
# [1] = tested on: HCT116; assay: MTT assay; type: cell-based; conditions: Homo sapiens, HCT-116; Parental cell line HCT116, MTT, 72 h
# [2] = tested on: HCT-15; assay: NCI60 assay; type: cell-based; conditions: Homo sapiens; Colon cancer, HCT-15, 48 h
# Description: (§1) CYB-L10 was tested using the protocols by the NCI, which has been described previously. […] The overall antiproliferative potential is quantified as a mean-graph midpoint (MGM). […] It was selected and submitted to National Cancer Institute (NCI, USA) for a developmental therapeutics assay against the 60 clinical tumor cell lines representing nine tissue types (NCI60)[23–25]. The tumor cells were incubated with CYB-L10 for 48 h and stained with sulphorhodamine B dye. Cell growth inhibition (GI50) was calculated relative to the control without compound.
# [3] = tested on: SF-295; assay: NCI60 assay; type: cell-based; conditions: Homo sapiens; CNS cancer, SF-295, 48 h
# Description: as §1
# [4] = tested on: ACHN; assay: NCI60 assay; type: cell-based; conditions: Homo sapiens, Renal cancer, 48 h
# Description: as §1
# [5] = tested on: SNB-75; assay: NCI60 assay; type: cell-based; conditions: Homo sapiens; CNS cancer, SNB-75, 48 h
# Description: as §1
# [6] = tested on: A498; assay: NCI60 assay; type: cell-based; conditions: Homo sapiens; Renal cancer, A498, 48 h
# Description: as §1
# [7] = tested on: MALME-3M; assay: NCI60 assay; type: cell-based; conditions: Homo sapiens, Melanoma, 48 h
# Description: as §1
# [8] = tested on: OVCAR-3; assay: NCI60 assay; type: cell-based; conditions: Homo sapiens; Ovarian cancer, OVCAR-3, 48 h
# Description: as §1
# [9] = tested on: KM12; assay: NCI60 assay; type: cell-based; conditions: Homo sapiens; Colon cancer, KM12, 48 h
# Description: as §1
# [10] = tested on: SK-MEL-5; assay: NCI60 assay; type: cell-based; conditions: Homo sapiens; Melanoma, SK-MEL-5, 48 h
# Description: as §1
# [11] = tested on: CAKI-1; assay: NCI60 assay; type: cell-based; conditions: Homo sapiens; Renal cancer, CAKI-1, 48 h
# Description: as §1
# [12] = tested on: MDA-MB-468; assay: NCI60 assay; type: cell-based; conditions: Homo sapiens; Breast cancer, MDA-MB-468, 48 h
# Description: as §1
# [13] = tested on: UACC-257; assay: NCI60 assay; type: cell-based; conditions: Homo sapiens; Melanoma, UACC-257, 48 h
# Description: as §1
# [14] = tested on: SF-539; assay: NCI60 assay; type: cell-based; conditions: Homo sapiens; CNS cancer, SF-539, 48 h
# Description: as §1
# [15] = tested on: TK-10; assay: NCI60 assay; type: cell-based; conditions: Homo sapiens; Renal cancer, TK-10, 48 h
# Description: as §1
# [16] = tested on: SR; assay: NCI60 assay; type: cell-based; conditions: Homo sapiens, Leukemia, 48 h
# Description: as §1
# [17] = tested on: MDA-MB-435; assay: NCI60 assay; type: cell-based; conditions: Homo sapiens; Melanoma, MDA-MB-435, 48 h
# Description: as §1
# [18] = tested on: SF-268; assay: NCI60 assay; type: cell-based; conditions: Homo sapiens; CNS cancer, SF-268, 48 h
# Description: as §1
# [19] = tested on: SN 12C; assay: NCI60 assay; type: cell-based; conditions: Homo sapiens, SN12C, Renal cancer, 48 h
# Description: as §1
# [20] = tested on: BT-549; assay: NCI60 assay; type: cell-based; conditions: Homo sapiens; Breast cancer, BT-549, 48 h
# Description: as §1
# [21] = tested on: NCI/ADR-RES; assay: NCI60 assay; type: cell-based; conditions: Homo sapiens, Ovarian cancer, 48 h
# Description: as §1
# [22] = tested on: HCT116; assay: NCI60 assay; type: cell-based; conditions: Homo sapiens, HCT-116, Colon cancer, HCT116, 48 h
# Description: as §1
# [23] = tested on: NCI-H226; assay: NCI60 assay; type: cell-based; conditions: Homo sapiens; Non-small cell lung cancer, NCI-H226, 48 h
# Description: as §1
# [24] = tested on: A549/ATCC; assay: NCI60 assay; type: cell-based; conditions: Homo sapiens, Non-small cell lung cancer, 48 h
# Description: as §1
# [25] = tested on: M14; assay: NCI60 assay; type: cell-based; conditions: Homo sapiens; Melanoma, M14, 48 h
# Description: as §1
# [26] = tested on: OVCAR-4; assay: NCI60 assay; type: cell-based; conditions: Homo sapiens; Ovarian cancer, OVCAR-4, 48 h
# Description: as §1
# [27] = tested on: NCI-H460; assay: NCI60 assay; type: cell-based; conditions: Homo sapiens; Non-small cell lung cancer, NCI-H460, 48 h
# Description: as §1
# [28] = tested on: OVCAR-5; assay: NCI60 assay; type: cell-based; conditions: Homo sapiens; Ovarian cancer, OVCAR-5, 48 h
# Description: as §1
# [29] = tested on: HCC-2998; assay: NCI60 assay; type: cell-based; conditions: Homo sapiens; Colon cancer, HCC-2998, 48 h
# Description: as §1
# [30] = tested on: RXF 393; assay: NCI60 assay; type: cell-based; conditions: Homo sapiens; Renal cancer, RXF 393, 48 h
# Description: as §1
# [31] = tested on: MCF7; assay: NCI60 assay; type: cell-based; conditions: Homo sapiens, Breast cancer, MCF7, 48 h
# Description: as §1
# [32] = tested on: SK-OV-3; assay: NCI60 assay; type: cell-based; conditions: Homo sapiens; Ovarian cancer, SK-OV-3, 48 h
# Description: as §1
# [33] = tested on: SK-MEL-2; assay: NCI60 assay; type: cell-based; conditions: Homo sapiens; Melanoma, SK-MEL-2, 48 h
# Description: as §1
# [34] = tested on: EKVX; assay: NCI60 assay; type: cell-based; conditions: Homo sapiens, Non-small cell lung cancer, 48 h
# Description: as §1
# [35] = tested on: UACC-62; assay: NCI60 assay; type: cell-based; conditions: Homo sapiens; Melanoma, UACC-62, 48 h
# Description: as §1
# [36] = tested on: K-562; assay: NCI60 assay; type: cell-based; conditions: Homo sapiens, K562; Leukemia, K-562, 48 h
# Description: as §1
# [37] = tested on: OVCAR-8; assay: NCI60 assay; type: cell-based; conditions: Homo sapiens; Ovarian cancer, OVCAR-8, 48 h
# Description: as §1
# [38] = tested on: MCF-7/ADR; assay: MTT assay; type: cell-based, human
# [39] = tested on: TOP1; set-up: method as in PMID 26188908; conditions: compared with CPT; cited from earlier work
smiles,measurement,setting,value
O=C1c2cccnc2C(=O)c2c1c(C(=O)OCCN1CCOCC1)c1ccccn21 [CYB-L10],GI50,[1],27 ± 24 nM
same,GI50,[2],39.5 nM
same,GI50,[3],25.7 nM
same,GI50,[4],< 10 nM
same,GI50,[5],< 10 nM
same,GI50,[6],34.3 nM
same,GI50,[7],45 nM
same,GI50,[8],170 nM
same,GI50,[9],168 nM
same,GI50,[10],28.5 nM
same,GI50,[11],33.9 nM
same,GI50,[12],1820 nM
same,GI50,[13],54.6 nM
same,GI50,[14],< 10 nM
same,GI50,[15],361 nM
same,GI50,[16],< 10 nM
same,GI50,[17],64.6 nM
same,GI50,[18],18.5 nM
same,GI50,[19],< 10 nM
same,GI50,[20],55.8 nM
same,GI50,[21],36.8 nM
same,GI50,[22],41.7 nM
same,GI50,[23],28.9 nM
same,GI50,[24],20.5 nM
same,GI50,[25],< 10 nM
same,GI50,[26],1220 nM
same,GI50,[27],< 10 nM
same,GI50,[28],648 nM
same,GI50,[29],252 nM
same,GI50,[30],35.1 nM
same,GI50,[31],< 10 nM
same,GI50,[32],< 10 nM
same,GI50,[33],46.2 nM
same,GI50,[34],1360 nM
same,GI50,[35],< 10 nM
same,GI50,[36],28.2 nM
same,GI50,[37],28.1 nM
same,Resistance ratio,[38]; GI50 MCF-7/ADR / GI50 MCF-7,6.6
same,GI50,"[38]; Homo sapiens, NCI/ADR-RES, Resistant subline MCF-7/ADR, MTT, 72 h",600 ± 210 nM
same,TOP1 inhibition,[39],higher TOP1 inhibition than CPT
